Laboratory results reported in patent US20110306597A1, “Nicotinamide Derivatives” (priority 2008, published 2011).

Target: human recombinant H-PGDS (Homo sapiens, UniProt O60760)
Test: Fluorescence Intensity h-PGDS TBA Enzyme Assay
Type: biochemical
Conditions: 1:175,000 human recombinant H-PGDS, highest inhibitor concentration typically 1 μM
Summary of the method: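 Recombinant human H-PGDS preincubated 10 min at room temperature with inhibitor in 100 mM Tris pH 8.0, 100 μM MgCl2, 2.5 mM glutathione, 0.5% DMSO; 5.0 μM PGH2 added, stopped after 42 s with FeCl2/citric acid. Remaining PGH2 measured as MDA–TBA fluorescence (ex 530/em 565 nm); IC50 by 4-parameter fit, 11 concentrations.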

human recombinant H-PGDS, sequence (O60760 whole entry): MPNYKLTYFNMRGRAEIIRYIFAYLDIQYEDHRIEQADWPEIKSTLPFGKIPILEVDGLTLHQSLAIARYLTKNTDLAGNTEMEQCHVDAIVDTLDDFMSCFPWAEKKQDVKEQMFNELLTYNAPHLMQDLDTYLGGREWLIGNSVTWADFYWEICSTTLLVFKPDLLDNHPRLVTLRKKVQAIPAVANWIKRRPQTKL

| IC50 | Compound |
| --- | --- |
| 519 nM | COc1cccc(-c2ccc(C(=O)NCC3CCCCO3)cn2)c1 (stereo not shown) [Example 284, 6-(3-Methoxyphenyl)-N-(tetrahydro-2H-pyran-2-ylmethyl)nicotinamide] |
| 32 nM | O=C(NCCN1CCNC1=O)c1ccc(-c2cccc(F)c2)nc1 [Example 148, 6-(3-Fluorophenyl)-N-[2-(2-oxoimidazolidin-1-yl)ethyl]nicotinamide] |
| 179 nM | COc1cccc(-c2ccc(C(=O)NCc3ccc(OC)c(OC)c3)cn2)c1 [Example 275, N-(3,4-Dimethoxybenzyl)-6-(3-methoxyphenyl)nicotinamide] |
| 55.9 nM | CCOC(=O)CC(NC(=O)c1ccc(-c2cccc(C)c2)nc1)c1ccc(Cl)cc1 (stereo not shown) [Example 221, Ethyl 3-(4-chlorophenyl)-3-({[6-(3-methylphenyl)pyridin-3-yl]carbonyl}amino)propanoate] |
| 42.7 nM | O=C(NCc1ccc(C(F)(F)F)cc1)c1ccc(-c2ccccc2)nc1 [Example 385, 6-Phenyl-N-[4-(trifluoromethyl)benzyl] nicotinamide] |
| 653 nM | CC(C)CNC(=O)c1ccc(-c2ccc(F)cc2)nc1 [Example 463, 6-(4-Fluorophenyl)-N-isobutylnicotinamide] |
| ≥ 1000 nM | NS(=O)(=O)c1ccc(CNC(=O)c2ccc(-c3ccc(F)cc3)nc2)cc1 [Example 460, N-[4-(Aminosulfonyl)benzyl]-6-(4-fluorophenyl) nicotinamide] |
| 102 nM | CSc1ccc(CNC(=O)c2ccc(-c3cccc(C)c3)nc2)cc1 [Example 453, 6-(3-Methylphenyl)-N-[4-(methylthio)benzyl]nicotinamide] |
| 21.5 nM | O=C(NCCn1nnc2ccccc21)c1ccc(-c2cccc(F)c2)nc1 [Example 82, N-[2-(1H-Benzotriazol-1-yl)ethyl]-6-(3-fluorophenyl)nicotinamide] |
| 8.19 nM | O=C(Nc1ccncc1)c1ccc(-c2cccc(F)c2)nc1 [Example 177, 6-(3-Fluorophenyl)-N-pyridin-4-ylnicotinamide] |
| 47.2 nM | COC(=O)CC(NC(=O)c1ccc(-c2cccc(C)c2)nc1)c1cccnc1 (stereo not shown) [Example 230, Methyl 3-({[6-(3-methylphenyl)pyridin-3-yl]carbonyl}amino)-3-pyridin-3-ylpropanoate] |
| 19.9 nM | Cc1cccc(-c2ccc(C(=O)NCc3cc(F)cc4c3OCOC4)cn2)c1 [Example 312, N-[(6-Fluoro-4H-1,3-benzodioxin-8-yl)methyl]-6-(3-methylphenyl)nicotinamide] |
| 12.5 nM | O=C(NCCc1nccs1)c1ccc(-c2cccc(F)c2)nc1 [Example 93, 6-(3-Fluorophenyl)-N-[2-(1,3-thiazol-2-yl)ethyl]nicotinamide] |
| 32.9 nM | COC(=O)CC(NC(=O)c1ccc(-c2ccccc2)nc1)c1cccnc1 (stereo not shown) [Example 370, Methyl 3-{[(6-phenylpyridin-3-yl)carbonyl]amino}-3-pyridin-3-ylpropanoate] |
| ≥ 1000 nM | O=C(NCCN1CCCC1)c1ccc(-c2ccc(F)cc2)nc1 [Example 469, 6-(4-Fluorophenyl)-N-(2-pyrrolidin-1-ylethyl)nicotinamide] |
| 552 nM | O=C(NCc1ccc(-n2cncn2)cc1)c1ccc(-c2ccc(F)cc2)nc1 [Example 329, 6-(4-Fluorophenyl)-N-[4-(1H-1,2,4-triazol-1-yl)benzyl]nicotinamide] |
| 5.15 nM | Cc1cc(C)c(C#N)c(N2C[C@H](NC(=O)c3ccc(-c4cccc(F)c4)nc3)[C@@H](O)C2)n1 [Example 563, N-[(3S,4S)-1-(3-Cyano-4,6-dimethylpyridin-2-yl)-4-hydroxypyrrolidin-3-yl]-6-(3-fluorophenyl)nicotinamide] |
| 149 nM | CCOC(=O)CC(NC(=O)c1ccc(-c2cccc(F)c2)nc1)c1ccc(Cl)cc1 (stereo not shown) [Example 407, Ethyl 3-(4-chlorophenyl)-3-({[6-(3-fluorophenyl)pyridin-3-yl]carbonyl}amino)propanoate] |
| 59.8 nM | Cc1nccn1CCNC(=O)c1ccc(-c2cccc(F)c2)nc1 [Example 119, 6-(3-Fluorophenyl)-N-[2-(2-methyl-1H-imidazol-1-yl)ethyl]nicotinamide] |
| 100 nM | Cc1cccc(-c2ccc(C(=O)NCCC3CCN(C)CC3)cn2)c1 [Example 253, 6-(3-Methylphenyl)-N-[2-(1-methylpiperidin-4-yl)ethyl]nicotinamide] |
| 92 nM | O=C(Nc1cccnc1)c1ccc(-c2ccc(F)cc2)nc1 [Example 328, 6-(4-Fluorophenyl)-N-pyridin-3-ylnicotinamide] |
| 34.1 nM | CS(=O)(=O)c1ccc(CNC(=O)c2ccc(-c3cccc(F)c3)nc2)cc1 [Example 420, 6-(3-Fluorophenyl)-N-[4-(methylsulfonyl)benzyl] nicotinamide] |
| 23.9 nM | Cc1nc(CNC(=O)c2ccc(-c3cccc(F)c3)nc2)cs1 [Example 69, 6-(3-Fluorophenyl)-N-[(2-methyl-1,3-thiazol-4-yl)methyl]nicotinamide] |

| IC50 | Compound |
| --- | --- |
| 35.8 nM | Cc1noc(CC(NC(=O)c2ccc(-c3cccc(F)c3)nc2)c2ccccc2)n1 (stereo not shown) [Example 87, 6-(3-Fluorophenyl)-N-[2-(3-methyl-1,2,4-oxadiazol-5-yl)-1-phenylethyl]nicotinamide] |
| 72.5 nM | COc1ccc(C(CNC(=O)c2ccc(-c3cccc(C)c3)nc2)N2CCOCC2)cc1 (stereo not shown) [Example 315, N-[2-(4-Methoxyphenyl)-2-morpholin-4-ylethyl]-6-(3-methylphenyl)nicotinamide] |
| 20.1 nM | CCC1CCN(CCNC(=O)c2ccc(-c3ccccc3)nc2)CC1 [Example 371, N-[2-(4-Ethylpiperidin-1-yl)ethyl]-6-phenylnicotinamide] |
| 128 nM | CC(C)OCCCN1CC(CNC(=O)c2ccc(-c3cccc(F)c3)nc2)OCC1=O (stereo not shown) [Example 216, 6-(3-Fluorophenyl)-N-{[4-(3-isopropoxypropyl)-5-oxomorpholin-2-yl]methyl}nicotinamide] |
| 4.3 nM | O=C(NCc1ccccc1)c1ccc(-c2ccccc2)nc1 [Example 347, N-Benzyl-6-phenylnicotinamide] |
| 175 nM | CN(C)CC(C)(C)CNC(=O)c1ccc(-c2cccc(F)c2)nc1 [Example 168, N-[3-(Dimethylamino)-2,2-dimethylpropyl]-6-(3-fluorophenyl)nicotinamide] |
| 51 nM | 6-(3-Fluorophenyl)-N-{[4-(4- methoxybenzoyl)-5- oxomorpholin-2- yl]methyl}nicotinamide [Example 72] |
| 9.46 nM | O=C(NCCC1CCC(=O)N1Cc1ccccc1)c1ccc(-c2cccc(F)c2)nc1 (stereo not shown) [Example 58, N-[2-(1-Benzyl-5-oxopyrrolidin-2-yl)ethyl]-6-(3-fluorophenyl)nicotinamide] |
| 252 nM | CCOC(=O)CC(NC(=O)c1ccc(-c2cccc(OC)c2)nc1)c1ccccc1Cl (stereo not shown) [Example 276, Ethyl 3-(2-chlorophenyl)-3-({[6-(3-methoxyphenyl)pyridin-3-yl]carbonyl}amino) propanoate] |
| 382 nM | COc1cccc(-c2ccc(C(=O)NCc3ccc(S(C)(=O)=O)cc3)cn2)c1 [Example 316, 6-(3-Methoxyphenyl)-N-[4-(methylsulfonyl)benzyl] nicotinamide] |
| 41.2 nM | C[C@@H](NC(=O)c1ccc(-c2cccc(F)c2)nc1)[C@@H](O)c1ccccc1 [Example 81, 6-(3-Fluorophenyl)-N-[(1R,2S)-2-hydroxy-1-methyl-2-phenethyl]nicotinamide] |
| 528 nM | COc1cccc(-c2ccc(C(=O)NCCN3CCOC3=O)cn2)c1 [Example 298, 6-(3-Methoxyphenyl)-N-[2-(2-oxo-1,3-oxazolidin-3-yl)ethyl]nicotinamide] |
| 14.8 nM | CCOCCCNC(=O)c1ccc(-c2cccc(F)c2)nc1 [Example 38, N-(3-Ethoxypropyl)-6-(3-fluorophenyl)nicotinamide] |
| 627 nM | COc1cccc(-c2ccc(C(=O)NCCCN3CCCC3=O)cn2)c1 [Example 290, 6-(3-Methoxyphenyl)-N-[3-(2-oxopyrrolidin-1-yl)propyl]nicotinamide] |
| 9.04 nM | CCOC(=O)CCCNC(=O)c1ccc(-c2cccc(F)c2)nc1 [Example 192, Ethyl 4-({[6-(3-fluorophenyl)pyridin-3-yl]carbonyl}amino)butanoate] |
| 20.7 nM | O=C(NCCCCNC(=O)c1ccc(-c2cccc(F)c2)nc1)OCc1ccccc1 [Example 214, Benzyl [4-({[6-(3-fluorophenyl)pyridin-3-yl]carbonyl}amino)butyl] carbamate] |
| 43.5 nM | O=C(NCCN1CCOCC1)c1ccc(-c2cccc(F)c2)nc1 [Example 169, 6-(3-Fluorophenyl)-N-(2-morpholin-4-ylethyl)nicotinamide] |
| 1.88 nM | Cc1ccccc1CNC(=O)c1ccc(-c2ccccc2)nc1 [Example 151, N-(2-Methylbenzyl)-6-phenylnicotinamide] |
| 20 nM | COc1ccccc1-c1nnc(CNC(=O)c2ccc(-c3cccc(F)c3)nc2)o1 [Example 439, 6-(3-Fluorophenyl)-N-{[5-(2-methoxyphenyl)-1,3,4-oxadiazol-2-yl]methyl}nicotinamide] |
| 7.37 nM | O=C(Nc1ccccc1)c1ccc(-c2cccc(F)c2)nc1 [Example 421, 6-(3-Fluorophenyl)-N-phenylnicotinamide] |
| 62.1 nM | CNS(=O)(=O)c1ccc(CNC(=O)c2ccc(-c3cc(F)cc(F)c3)nc2)cc1 [Example 571, 6-(3,5-Difluorophenyl)-N-{4-[(methylamino)sulfonyl]benzyl}nicotinamide] |
| 24.6 nM | COC(=O)CNC(=O)[C@H](C)NC(=O)c1ccc(-c2ccccc2)nc1 [Example 348, Methyl N-[(6-phenylpyridin-3-yl)carbonyl]-L-alanylglycinate] |

| Compound | IC50 |
| --- | --- |
| O=C(N[C@@H]1C[C@H]2CC[C@@H](C1)N2C(=O)N1CCC(O)CC1)c1ccc(-c2cccc(F)c2)nc1 [Example 596, 6-(3-Fluorophenyl)-N-(3-exo)-8-[(4-hydroxypiperidin-1-ylcarbonyl]-8-azabicyclo[3.2.1]octyl-3-yl}nicotinamide] | 11 nM |
